Measured values published in patent publication US20230091047A1 (priority 2019, published 2023).
Like-named read-outs stand apart in the source and are kept apart here.

What was measured:
[1] = tested on: HBV (HepG2.117 cell line, inducibly HBV producing); experiment: Anti-HBV activity: intracellular HBV DNA by real-time PCR in HepG2.117 cells after 3 days of treatment; assay type: cell-based, hepatitis B virus
Procedure, shortened: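 Read-out is intracellular HBV DNA, measured by real-time PCR using HBV-specific primers and probe. Cells were stable, inducible HBV-producing HepG2.117 (Tet-off). Serially diluted compound was applied for 3 days after replication was induced.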

in vitro = assay type: cell-based; details: human, HepG2 or HepG2.117 cells, ATPlite, mean value
Procedure, shortened: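 Luminescent ATP quantitation served as the viability endpoint following a 3- or 4-day incubation with test compounds.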

[2] = Hepatitis B virus, HepG2.117, 72 h, HepG2.117 cells, 3 days of treatment, intracellular HBV DNA by real-time PCR; mean value; read-out: EC50 (μM, mean value)
[3] = 3-days incubation (unmarked values)
[4] = Hepatitis B virus, HepG2.117, 72 h, HepG2.117 cells, intracellular HBV DNA by real-time PCR, 3 days of treatment, mean value; read-out: EC50 (μM, mean value)
[5] = 3-days incubation (not marked with *)

| SMILES | EC50 [1, 2] | CC50 at 3 days (in vitro; [3]) | EC50 [1, 4] | CC50 at 3 days (in vitro; [5]) | CC50 at 4 days (in vitro; 4-days incubation (values marked with *)) |
| --- | --- | --- | --- | --- | --- |
| CNC(=O)c1ccc(-n2c(NC(C)C)nc3c(c2=O)C[C@@H](C)N(C(=O)c2ccc(Cl)c(Cl)c2)C3)cc1Cl [Compound C338, 2-chloro-4-[(6R)-7-(3,4-dichlorobenzoyl)-6-methyl-4-oxo-2-[(propan-2-yl)amino]-5,6,7,8-tetrahydropyrido[3,4-d]pyrimidin-3(4H)-yl]-N-methylbenzamide] | 0.1 µM | > 50 µM | – | – | – |
| COc1ccc(CNc2nc3c(c(=O)n2CC(C)C)CCN(C(=O)c2ccc(Cl)c(Cl)c2)C3)cc1 [Compound C67, 7-(3,4-dichlorobenzoyl)-2-{[(4-methoxyphenyl)methyl]amino}-3-(2-methylpropyl)-5,6,7,8-tetrahydropyrido[3,4-d]pyrimidin-4(3H)-one] | 9.51 µM | > 50 µM | – | – | – |
| CNC(=O)c1ccc(-n2c(Nc3ccon3)nc3c(c2=O)C[C@@H](C)N(C(=O)c2ccc(Cl)c(Cl)c2)C3)cc1 [Compound C278, 4-[(6R)-7-(3,4-dichlorobenzoyl)-6-methyl-2-[(1,2-oxazol-3-yl)amino]-4-oxo-5,6,7,8-tetrahydropyrido[3,4-d]pyrimidin-3(4H)-yl]-N-methylbenzamide] | 11 µM | > 50 µM | – | – | – |
| CNC(=O)c1ccc(-n2c(NC(C)C)nc3c(c2=O)C[C@@H](C)N(C(=O)c2ccc(Br)cc2OC)C3)cc1 [Compound C513] | – | – | 22.1 µM | > 50 µM | – |
| CNC(=O)c1ccc(-n2c(NC(C)C)nc3c(c2=O)C[C@@H](C)N(C(=O)c2ccc(C)c(C(F)(F)F)c2)C3)cc1 [Compound C585] | – | – | 0.1 µM | > 50 µM | – |
| CC(C)Nc1nc2c(c(=O)[nH]1)CCN(C(=O)c1ccc(Cl)c(Cl)c1)C2 [Compound C42, 7-(3,4-dichlorobenzoyl)-2-[(propan-2-yl)amino]-5,6,7,8-tetrahydropyrido[3,4-d]pyrimidin-4(3H)-one] | 2.79 µM | > 50 µM | – | – | – |
| CNC(=O)[C@H]1CC[C@H](n2c(N[C@@H](C)c3ccc(OC(F)(F)F)cc3)nc3c(c2=O)C[C@@H](C)N(C(=O)c2ccc(Cl)c(Cl)c2)C3)CC1 [Compound C632] | – | – | 0.12 µM | 6.2 µM | – |
| CNC(=O)c1ccc(-n2c(NC(C)C)nc3c(c2=O)C[C@@H](C)N(C(=O)c2ccc4c(c2)[nH]c(=O)n4C)C3)cc1 [Compound C510] | – | – | 9.42 µM | > 50 µM | – |
| C[C@H](Nc1nc2c(c(=O)n1-c1ccc(-n3cccn3)cc1)C[C@@H](C)N(C(=O)c1ccc(Cl)c(Cl)c1)C2)c1ccc(OC(F)(F)F)cc1 (single isomer, unassigned) [Compound C463b] | – | – | 7.21 µM | > 50 µM | – |
| CNC(=O)c1ccc(-n2c(NC(C)C)nc3c(c2=O)C[C@@H](C)N(C(=O)c2ccc(Br)c(Cl)c2F)C3)cc1 [Compound C580] | – | – | 0.08 µM | > 50 µM | – |
| CNC(=O)c1ccc(-n2c(N[C@H](C)c3ccc(F)c(F)c3)nc3c(c2=O)C[C@@H](C)N(C(=O)c2ccc(Cl)c(Cl)c2)C3)cc1 (single isomer, unassigned) [Compound C417a] | – | – | 1.22 µM | 41.8 µM | – |
| CC(C)Nc1nc2c(c(=O)n1-c1ccc(-c3nccn3C)cc1)C[C@@H](C)N(C(=O)c1ccc(Cl)c(Cl)c1)C2 [Compound C192, (6R)-7-(3,4-dichlorobenzoyl)-6-methyl-3-[4-(1-methyl-1H-imidazol-2-yl)phenyl]-2-[(propan-2-yl)amino]-5,6,7,8-tetrahydropyrido[3,4-d]pyrimidin-4(3H)-one] | 0.13 µM | 36.1 µM | – | – | – |
| COc1ccccc1-n1c(NC2COC2)nc2c(c1=O)CCN(C(=O)c1ccc(Cl)c(Cl)c1)C2 [Compound C48, 7-(3,4-dichlorobenzoyl)-3-(2-methoxyphenyl)-2-[(oxetan-3-yl)amino]-5,6,7,8-tetrahydropyrido[3,4-d]pyrimidin-4(3H)-one] | 30.1 µM | > 50 µM | – | – | – |
| COc1ccccc1-n1c(OC)nc2c(c1=O)CCN(C(=O)c1ccc(Cl)c(Cl)c1)C2 [Compound C54, 7-(3,4-dichlorobenzoyl)-2-methoxy-3-(2-methoxyphenyl)-5,6,7,8-tetrahydropyrido[3,4-d]pyrimidin-4(3H)-one] | 4.59 µM | 29.7 µM | – | – | – |
| CNC(=O)c1ccc(-n2c(N[C@@H]3C[C@H]3c3ccc(OC)cc3)nc3c(c2=O)C[C@@H](C)N(C(=O)c2ccc(Cl)c(Cl)c2)C3)cc1 (single isomer, unassigned) [Compound C452a] | – | – | 1.44 µM | > 25 µM | – |
| CNC(=O)c1ccc(-n2c(N[C@@H](C)C(C)C)nc3c(c2=O)C[C@@H](C)N(C(=O)c2ccc(Cl)c(Cl)c2)C3)cc1 [Compound C390] | – | – | 0.08 µM | 26.5 µM | – |

| SMILES | EC50 [1, 2] | CC50 at 3 days (in vitro; [3]) | EC50 [1, 4] | CC50 at 3 days (in vitro; [5]) | CC50 at 4 days (in vitro; 4-days incubation (values marked with *)) |
| --- | --- | --- | --- | --- | --- |
| COc1ccc(CNc2nc3c(c(=O)n2Cc2ccccc2)CCN(C(=O)c2ccc(Cl)c(Cl)c2)C3)cc1 [Compound C41, 3-benzyl-7-(3,4-dichlorobenzoyl)-2-{[(4-methoxyphenyl)methyl]amino}-5,6,7,8-tetrahydropyrido[3,4-d]pyrimidin-4(3H)-one] | 8.7 µM | > 50 µM | – | – | – |
| CNC(=O)c1cc(-n2c(N[C@@H](C)c3ccc(C(F)(F)F)cc3)nc3c(c2=O)C[C@@H](C)N(C(=O)c2ccc(Cl)c(Cl)c2)C3)n(C)n1 [Compound C534] | – | – | 0.14 µM | > 50 µM | – |
| CC(C)Nc1nc2c(c(=O)n1-c1ccc(S(C)(=O)=O)cc1)CCN(C(=O)c1nc3ccccc3[nH]1)C2 [Compound C358] | > 50 µM | > 50 µM | – | – | – |
| COc1ccccc1-n1c(SC)nc2c(c1=O)CCN(C(=O)c1ccc(Cl)c(Cl)c1)C2 [Compound C4, 7-(3,4-dichlorobenzoyl)-3-(2-methoxyphenyl)-2-(methylsulfanyl)-5,6,7,8-tetrahydropyrido[3,4-d]pyrimidin-4(3H)-one] | 1.79 µM | – | – | – | 36.8 µM |
| CNC(=O)c1cnc(-n2c(N[C@@H](C)c3ccc(F)cc3)nc3c(c2=O)C[C@@H](C)N(C(=O)c2ccc(Cl)c(Cl)c2)C3)cn1 [Compound C614] | – | – | 0.09 µM | > 50 µM | – |
| CNC(=O)c1ccc(-n2c(N3CC[C@H]3C)nc3c(c2=O)C[C@@H](C)N(C(=O)c2ccc(Cl)c(Cl)c2)C3)cc1 (single isomer, unassigned) [Compound C311, 4-[(6R)-7-(3,4-dichlorobenzoyl)-6-methyl-2-[(2*R)-2-methylazetidin-1-yl]-4-oxo-5,6,7,8-tetrahydropyrido[3,4-d]pyrimidin-3(4H)-yl]-N-methylbenzamide] | 0.09 µM | > 50 µM | – | – | – |
| CNC(=O)C12C3C4C1C1C2C3C41n1c(NC(C)C)nc2c(c1=O)C[C@@H](C)N(C(=O)c1ccc(Cl)c(Cl)c1)C2 (stereo partly shown) [Compound C456] | – | – | 0.4 µM | > 50 µM | – |
| CNC(=O)c1cc(-n2c(NC(C)C)nc3c(c2=O)C[C@@H](C)N(C(=O)c2ccc(Cl)c(Cl)c2)C3)n(C)n1 [Compound C354, 5-[(6R)-7-(3,4-dichlorobenzoyl)-6-methyl-4-oxo-2-[(propan-2-yl)amino]-5,6,7,8-tetrahydropyrido[3,4-d]pyrimidin-3(4H)-yl]-N,1-dimethyl-1H-pyrazole-3-carboxamide] | 0.16 µM | > 50 µM | – | – | – |
| CNC(=O)c1ccc(-n2c(NCC3CC3C)nc3c(c2=O)C[C@@H](C)N(C(=O)c2ccc(Cl)c(Cl)c2)C3)cc1 (stereo partly shown) [Compound C547] | – | – | 0.97 µM | 47.2 µM | – |
| CNC(=O)c1ccc(-n2c(N3CCC[C@@H]3C)nc3c(c2=O)C[C@@H](C)N(C(=O)c2ccc(Cl)c(Cl)c2)C3)cc1 [Compound C271, 4-[(6R)-7-(3,4-dichlorobenzoyl)-6-methyl-2-[(2S)-2-methylpyrrolidin-1-yl]-4-oxo-5,6,7,8-tetrahydropyrido[3,4-d]pyrimidin-3(4H)-yl]-N-methylbenzamide] | 0.27 µM | 24.9 µM | – | – | – |
| CNC(=O)c1ccc(-n2c(NCc3nnn(C)c3C(F)F)nc3c(c2=O)C[C@@H](C)N(C(=O)c2ccc(Cl)c(Cl)c2)C3)cc1 [Compound C552] | – | – | > 25 µM | > 50 µM | – |
| Cc1ncccc1-n1c(NC(C)C)nc2c(c1=O)CCN(C(=O)c1ccc(Cl)c(Cl)c1)C2 [Compound C99, 7-(3,4-dichlorobenzoyl)-3-(2-methylpyridin-3-yl)-2-[(propan-2-yl)amino]-5,6,7,8-tetrahydropyrido[3,4-d]pyrimidin-4(3H)-one] | 2.05 µM | 28.3 µM | – | – | – |
| COc1ccccc1-n1c(N(C)C)nc2c(c1=O)CCN(C(=O)c1ccc(Cl)c(Cl)c1)C2 [Compound C46, 7-(3,4-dichlorobenzoyl)-2-(dimethylamino)-3-(2-methoxyphenyl)-5,6,7,8-tetrahydropyrido[3,4-d]pyrimidin-4(3H)-one] | 6.49 µM | > 50 µM | – | – | – |
| CNC(=O)c1ccc(-n2c(NCc3cnn(C)n3)nc3c(c2=O)C[C@@H](C)N(C(=O)c2ccc(Cl)c(Cl)c2)C3)cc1 [Compound C560] | – | – | 2.59 µM | > 50 µM | – |
| CNC(=O)c1ccc(-n2c(NC(C)C)nc3c(c2=O)C[C@@H](C)N(C(=O)c2ccc(Cl)c(C(F)(F)F)c2)C3)c(C(F)F)c1 (single isomer, unassigned) [Compound C669a] | – | – | 0.02 µM | 29.8 µM | – |
| CC(C)Nc1nc2c(c(=O)n1-c1ccc(S(C)(=O)=O)cc1)CCN(C(=O)c1nc3ccccc3o1)C2 [Compound C362] | > 50 µM | > 50 µM | – | – | – |
